Measured values from patent publication US7179825B2, “Retinoic acid mimetic anilides” (Janssen Pharmaceutica N.V., priority 1997, dated 2007).

Legend:
[1] = tested on: metabolism of retinoic acid in human breast cancer cells; assay: Inhibition of retinoic acid (RA) metabolism (Example C.1); assay type: cell-based; conditions: MCF-7 human breast cancer cells, 3H-RA as substrate, concentration needed to reduce the amount of metabolites to 50% of the control
Summary of the method: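 Test compound (in 1% DMSO) added at several concentrations to MCF-7 cell suspensions fed ³H-RA, after RA induction of metabolism one day earlier. Scintillation counting of the separated polar metabolite fraction; IC50 = concentration giving 50% of control metabolite level.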

Ovariectomized rats = assay: Vaginal keratinization test on ovariectomized rats (Example C.2); assay type: in vivo; conditions: estradiol undecylate induced keratinization, per os once daily on days 1-3, active dose = 50% of rats show complete suppression; for minimal effective dose: Rattus norvegicus, po, read-out: LAD (lowest active dose)
Summary of the method: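 Value is the lowest oral dose (mg/kg) at which half of tested rats show complete suppression of estradiol undecylate-induced vaginal keratinization by histology. Ovariectomized rats received 100 μg/100 g estradiol undecylate s.c., then compound or PEG 200 vehicle p.o. daily for three days; sacrifice one day later.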

For `CC(C)C(c1ccc(NC(=O)CSc2ccccc2)cc1)n1ccnc1` (racemic) [Compound 223], the IC50 [1] was 1.2 nM and the “LAD (lowest active dose)” value (Ovariectomized rats) was 5.00 mg/kg.
For `CC(C)C(c1ccc(NC(=O)c2ccnc3ccccc23)cc1)n1ccnc1` (racemic) [Compound 227], the IC50 [1] was 7.8 nM and the “LAD (lowest active dose)” value (Ovariectomized rats) was >10.00 mg/kg.
For `CC(C)C(c1ccc(NC(=O)c2ccc[nH]c2=O)cc1)n1ccnc1` (racemic) [Compound 228], the IC50 [1] was 73 nM and the “LAD (lowest active dose)” value (Ovariectomized rats) was >10.00 mg/kg.
With `CC(C)C(c1ccc(NC(=O)c2cccc3c2OCCO3)cc1)n1ccnc1` (racemic) [Compound 230] the IC50 [1] was 3.89 nM and the “LAD (lowest active dose)” value (Ovariectomized rats) was >10.00 mg/kg.
For `COc1ccc(C(=O)Nc2ccc(C(C(C)C)n3ccnc3)cc2)cc1OC` (racemic) [Compound 231], the IC50 [1] was 1.86 nM and the “LAD (lowest active dose)” value (Ovariectomized rats) was >10.00 mg/kg.
`CC(C)C(c1ccc(NC(=O)c2ccc3c(c2)OCO3)cc1)n1ccnc1` (racemic) [Compound 232] was tested, and the IC50 [1] was 1.51 nM and the “LAD (lowest active dose)” value (Ovariectomized rats) was >10.00 mg/kg.
`CC(C)C(c1ccc(NC(=O)c2cccc3nccnc23)cc1)n1ccnc1` (racemic) [Compound 233] was tested, and the IC50 [1] was 2.43 nM and the “LAD (lowest active dose)” value (Ovariectomized rats) was >10.00 mg/kg.
With `CC(C)C(c1ccc(NC(=O)Cc2ccco2)cc1)n1ccnc1` (racemic) [Compound 235] the IC50 [1] was 6.94 nM and the “LAD (lowest active dose)” value (Ovariectomized rats) was 5.00 mg/kg.
`CC(C)C(c1ccc(NC(=O)C(C)(C)O)cc1)n1ccnc1` (racemic) [Compound 236] was tested, and the IC50 [1] was 98.4 nM and the “LAD (lowest active dose)” value (Ovariectomized rats) was 5.00 mg/kg.
`CC(C)C(c1ccc(NC(=O)CC2COc3ccccc3O2)cc1)n1ccnc1` (racemic) [Compound 237] was tested, and the IC50 [1] was 18.2 nM and the “LAD (lowest active dose)” value (Ovariectomized rats) was 5.00 mg/kg.
For `CC(C)C(c1ccc(NC(=O)c2ccc(-c3ccccc3)cc2)cc1)n1ccnc1` (racemic) [Compound 238], the IC50 [1] was > 100 nM and the “LAD (lowest active dose)” value (Ovariectomized rats) was 5.00 mg/kg.
For `CC(C)C(c1ccc(NC(=O)CSc2ccncc2)cc1)n1ccnc1` (racemic) [Compound 239], the IC50 [1] was 0.728 nM and the “LAD (lowest active dose)” value (Ovariectomized rats) was 10.00 mg/kg.
In the case of `CC(C)C(c1ccc(NC(=O)Cc2ccc3ccccc3c2)cc1)n1ccnc1` (racemic) [Compound 240], the IC50 [1] is reported as 1.34 nM and the “LAD (lowest active dose)” value (Ovariectomized rats) is reported as 10.00 mg/kg.
With `CC(C)C(c1ccc(NC(=O)c2cnc3ccccc3c2)cc1)n1ccnc1` (racemic) [Compound 241] the IC50 [1] was 2.59 nM and the “LAD (lowest active dose)” value (Ovariectomized rats) was 10.00 mg/kg.
`Cc1noc(C)c1C(=O)Nc1ccc(C(C(C)C)n2ccnc2)cc1` (racemic) [Compound 242] was tested, and the IC50 [1] was 2.82 nM and the “LAD (lowest active dose)” value (Ovariectomized rats) was >10.00 mg/kg.
With `CC(C)C(c1ccc(NC(=O)C2CSc3ccccc3O2)cc1)n1ccnc1` (racemic) [Compound 243] the IC50 [1] was 35.9 nM and the “LAD (lowest active dose)” value (Ovariectomized rats) was 10.00 mg/kg.
With `CC(C)C(c1ccc(NC(=O)Cc2cccs2)cc1)n1ccnc1` (racemic) [Compound 244] the IC50 [1] was 2.3 nM and the “LAD (lowest active dose)” value (Ovariectomized rats) was 10.00 mg/kg.
For `CC(C)C(c1ccc(NC(=O)Cc2ccsc2)cc1)n1ccnc1` (racemic) [Compound 245], the IC50 [1] was 2.79 nM and the “LAD (lowest active dose)” value (Ovariectomized rats) was 10.00 mg/kg.
`CC(C)C(c1ccc(NC(=O)Cc2cccc3ccccc23)cc1)n1ccnc1` (racemic) [Compound 246] was tested, and the IC50 [1] was 2.1 nM and the “LAD (lowest active dose)” value (Ovariectomized rats) was 10.00 mg/kg.
`CC(C)C(c1ccc(NC(=O)Cc2ccccn2)cc1)n1ccnc1` (racemic) [Compound 247] was tested, and the IC50 [1] was 35.5 nM and the “LAD (lowest active dose)” value (Ovariectomized rats) was 10.00 mg/kg.
With `CC(C)C(c1ccc(NC(=O)c2ccc3c(c2)C(C)(C)CCC3(C)C)cc1)n1ccnc1` (racemic) [Compound 252] the IC50 [1] was 2.59 nM and the “LAD (lowest active dose)” value (Ovariectomized rats) was >10.00 mg/kg.
For `CC(C)C(c1ccc(NC(=O)C2=Cc3ccccc3OC2)cc1)n1ccnc1` (racemic) [Compound 254], the IC50 [1] was 6.47 nM and the “LAD (lowest active dose)” value (Ovariectomized rats) was >5.00 mg/kg.
For `CC(C)C(c1ccc(NC(=O)Cc2ccc3c(c2)OCCO3)cc1)n1ccnc1` (racemic) [Compound 255], the IC50 [1] was 6.24 nM and the “LAD (lowest active dose)” value (Ovariectomized rats) was 5.00 mg/kg.
With `CC(C)C(c1ccc(NC(=O)Cc2ccc3c(c2)C(C)(C)CCC3(C)C)cc1)n1ccnc1` (racemic) [Compound 256] the IC50 [1] was 3.2 nM and the “LAD (lowest active dose)” value (Ovariectomized rats) was >2.50 mg/kg.
With `CC(C)C(c1ccc(NC(=O)CNC(=O)c2ccccc2)cc1)n1ccnc1` (racemic) [Compound 261] the IC50 [1] was 2.22 nM and the “LAD (lowest active dose)” value (Ovariectomized rats) was >10.00 mg/kg.
With `CC(C)C(c1ccc(NC(=O)CNC(=O)OCc2ccccc2)cc1)n1ccnc1` (racemic) [Compound 262] the IC50 [1] was 7.48 nM and the “LAD (lowest active dose)” value (Ovariectomized rats) was 20.00 mg/kg.
`CC(C)C(c1ccc(NC(=O)N(C)Cc2ccccc2)cc1)n1ccnc1` (racemic) [Compound 263] was tested, and the IC50 [1] was 4.66 nM and the “LAD (lowest active dose)” value (Ovariectomized rats) was >10.00 mg/kg.
With `CC(C)C(c1ccc(NC(=O)CC2(CC(=O)O)CCCC2)cc1)n1ccnc1` (racemic) [Compound 264] the IC50 [1] was 2.71 nM and the “LAD (lowest active dose)” value (Ovariectomized rats) was >10.00 mg/kg.
In the case of `CC(C)C(c1ccc(NC(N)=O)cc1)n1ccnc1` (racemic) [Compound 266, (±)-4-[1-(1H-imidazol-1-yl)-2-methylpropyl]phenylurea], the IC50 ([1]; MCF7) is reported as 31.1 nM and the minimal effective dose (Ovariectomized rats) is reported as > 10 mg/kg.
With `CC(C)NC(=O)Nc1ccc(C(C(C)C)n2ccnc2)cc1` (racemic) [Compound 268] the IC50 [1] was 7.79 nM and the “LAD (lowest active dose)” value (Ovariectomized rats) was >10.00 mg/kg.
In the case of `CC(C)C(c1ccc(NC(=O)Nc2cccnc2)cc1)n1ccnc1` (racemic) [Compound 270], the IC50 [1] is reported as 5.61 nM and the “LAD (lowest active dose)” value (Ovariectomized rats) is reported as >10.00 mg/kg.
With `CC(C)C(c1ccc(NC(=O)Nc2cnccn2)cc1)n1ccnc1` (racemic) [Compound 271] the IC50 [1] was 2.45 nM and the “LAD (lowest active dose)” value (Ovariectomized rats) was 10.00 mg/kg.
With `CC(C)C(c1ccc(NC(=O)Nc2cccc3ccccc23)cc1)n1ccnc1` (racemic) [Compound 272] the IC50 [1] was 4.81 nM and the “LAD (lowest active dose)” value (Ovariectomized rats) was >10.00 mg/kg.
With `CC(C)C(c1ccc(NC(=O)Nc2ccccn2)cc1)n1ccnc1` (racemic) [Compound 274, (±)-N-(2-pyridinyl)-N′-[4-[1-(1H-imidazol-1-yl)-2-methylpropyl]phenyl]urea] the IC50 ([1]; MCF7) was 6.64 nM and the minimal effective dose (Ovariectomized rats) was > 10 mg/kg.
`CC(C)C(c1ccc(NC(=O)Nc2ccncc2)cc1)n1ccnc1` (racemic) [Compound 275] was tested, and the IC50 [1] was 4.28 nM and the “LAD (lowest active dose)” value (Ovariectomized rats) was >10.00 mg/kg.
With `CC(C)C(c1ccc(NC(=O)Nc2ccc3c(c2)OCCO3)cc1)n1ccnc1` (racemic) [Compound 276] the IC50 [1] was 16 nM and the “LAD (lowest active dose)” value (Ovariectomized rats) was >10.00 mg/kg.
In the case of `CC(C)C(c1ccc(NC(=O)Nc2nc3ccccc3n2C)cc1)n1ccnc1` (racemic) [Compound 277], the IC50 [1] is reported as 1.17 nM and the “LAD (lowest active dose)” value (Ovariectomized rats) is reported as >5.00 mg/kg.
For `O=C(Cc1ccc(Cl)cc1)Nc1ccc(C(c2ccc(Cl)cc2)n2ccnc2)cc1` (racemic) [Compound 356], the IC50 [1] was > 100 nM and the “LAD (lowest active dose)” value (Ovariectomized rats) was >10.00 mg/kg.
`CC(c1ccc(NC(=O)Cc2ccc(Cl)cc2)cc1)n1ccnc1` (racemic) [Compound 358] was tested, and the IC50 [1] was > 100 nM and the “LAD (lowest active dose)” value (Ovariectomized rats) was >10.00 mg/kg.
In the case of `CC(C)CC(c1ccc(NC(=O)Cc2ccc(Cl)cc2)cc1)n1ccnc1` (racemic) [Compound 359], the IC50 [1] is reported as 6.25 nM and the “LAD (lowest active dose)” value (Ovariectomized rats) is reported as >10.00 mg/kg.
With `CC(C)(C)CC(c1ccc(NC(=O)Cc2ccc(Cl)cc2)cc1)n1ccnc1` (racemic) [Compound 360] the IC50 [1] was 1.08 nM and the “LAD (lowest active dose)” value (Ovariectomized rats) was 2.50 mg/kg.
For `CCC(C)C(c1ccc(NC(=O)Cc2ccc(Cl)cc2)cc1)n1ccnc1` (racemic) [Compound 364], the IC50 [1] was 1.41 nM and the “LAD (lowest active dose)” value (Ovariectomized rats) was 2.50 mg/kg.
`CCCC(CCC)C(c1ccc(NC(=O)Cc2ccc(OC)c(OC)c2)cc1)n1ccnc1` (racemic) [Compound 378] was tested, and the IC50 [1] was 1.74 nM and the “LAD (lowest active dose)” value (Ovariectomized rats) was 2.50 mg/kg.
With `COCC(C)C(c1ccc(NC(=O)Cc2ccc(OC)c(OC)c2)cc1)n1ccnc1` (racemic) [Compound 404, (±)-(A)-3,4-dimethoxy-N-[4-[1-(1H-imidazol-1-yl)-3-methoxy-2-methylpropyl]phenyl]benzeneacetamide] the IC50 [1] was 1.35 nM and the “LAD (lowest active dose)” value (Ovariectomized rats) was 5.00 mg/kg.
In the case of `C/C(=C\c1ccccc1)C(=O)N(C)c1ccc(C(C(C)C)n2ccnc2)cc1` (racemic) [Compound 421], the IC50 [1] is reported as > 100 nM and the “LAD (lowest active dose)” value (Ovariectomized rats) is reported as >10.00 mg/kg.
In the case of `CCN(C(=O)/C(C)=C/c1ccccc1)c1ccc(C(C(C)C)n2ccnc2)cc1` (racemic) [Compound 422], the IC50 [1] is reported as > 10 nM and the “LAD (lowest active dose)” value (Ovariectomized rats) is reported as >10.00 mg/kg.
`O=C(Nc1ccc(C(c2ccccc2)n2ccnc2)cc1)c1cnccn1` (racemic) [Compound 424] was tested, and the IC50 [1] was > 100 nM and the “LAD (lowest active dose)” value (Ovariectomized rats) was >10.00 mg/kg.
For `CCC(CC)C(c1ccc(N(C)C(=O)Cc2ccc(OC)c(OC)c2)cc1)n1ccnc1` (racemic) [Compound 427], the IC50 [1] was 8.34 nM and the “LAD (lowest active dose)” value (Ovariectomized rats) was 2.50 mg/kg.
`CN(C)CC(c1ccc(NC(=O)Oc2ccccc2)cc1)n1ccnc1` (racemic) [Compound 435] was tested, and the IC50 [1] was 2.8 nM and the “LAD (lowest active dose)” value (Ovariectomized rats) was >2.50 mg/kg.
`CC(=Cc1ccccc1)C(=O)Nc1ccc(C(c2ccccc2)n2ccnc2)cc1` (racemic) [Compound 445] was tested, and the IC50 [1] was 192 nM and the “LAD (lowest active dose)” value (Ovariectomized rats) was >20.00 mg/kg.
With `C/C(=C\c1ccccc1)C(=O)Nc1ccc(C(C(C)C)n2ccnc2)cc1` (racemic) [Compound 455] the IC50 [1] was 2.87 nM and the “LAD (lowest active dose)” value (Ovariectomized rats) was 2.50 mg/kg.
For `Cc1ccccc1C(=Cc1ccccc1)C(=O)Nc1ccc(C(C(C)C)n2ccnc2)cc1` (racemic) [Compound 456], the IC50 [1] was 140 nM and the “LAD (lowest active dose)” value (Ovariectomized rats) was >20.00 mg/kg.
`CCC(=Cc1ccccc1)C(=O)Nc1ccc(C(C(C)C)n2ccnc2)cc1` (racemic) [Compound 457] was tested, and the IC50 [1] was 25 nM and the “LAD (lowest active dose)” value (Ovariectomized rats) was >20.00 mg/kg.
